# Laboratory results: patent US9173935B2, “Phospholipid drug analogs” (Telormedix SA, priority 2010, dated 2015)
# Read-outs that look alike come from different tables or passages of the source.
# What was measured:
# PBMCs = assay: IL-6 and TNF-alpha secretion in PBMCs from three donors (ELISA); format: cell-based, human; conditions: read-out: EC50 values, IL-6 secretion
# Experimental: EC50 values were determined for control and each drug candidate for IL-6 and TNF-alpha secretion. […] The cells were treated with TLR7 agonists for 24 hours in 7 doses. The conditioned media was removed for ELISA analyses for IL-6 and TNF-alpha, and cell survival determined by the XTT method according to the protocol from the supplier. […] Concentrations of IL-6 and TNF-alpha were determined by ELISA from R&D Systems using the Microsoft Excel Software. The results were analyzed in Graph Pad Prism in order to prepare dose-response curves, and for determination of EC50 values.
# [1] = Solubility, method of European Pharmacopoeia 6.0; format: physicochemical
# Experimental: The method reported in the European Pharmacopoeia 6.0 was used.
# Batch CH730/16/8g was tested according to the method described in E. Ph: DMSO was added in 0.1 mL portions to 103.7 mg of product and the suspension was shaken with a Vortex instrument for 3 min after each addition. […] The batches CH730/16/8c, CH730/16/8g and CH730/23/8e were then tested stirring each suspension for a longer time; 100 mg of each batch dissolved completely in 0.2 mL of DMSO after stirring for 30 minutes.
# [2] = Storage stability by HPLC (solid or chloroform solution; temperature, light); format: physicochemical; conditions: room temperature, natural light
# Experimental: At this point, a stability study was conducted on batch CH730/16/8g.
# The samples were analyzed at t=0 and after 20 days.
# [3] = Plasma stability, first experiment, rat plasma; format: in vitro ADME
# Experimental: (§1) A 10 μl of MeOH was added to improve solubility. […] The supernatant fractions were analyzed by LC/MS/MS. […] Percent loss of substrate in incubations was determined to estimate the in vitro half life of the test compound.
# [4] = Plasma stability, second experiment, human plasma; conditions: human, plasma
# Experimental: Second experiment: Test compounds (5 mM in DMSO) were diluted at the final concentration of 250 μM with ACN-MeOH 1:1.
# Human plasma (1.180 ml) was spiked with 20 μl of 250 μM solution of the compound (4.16 μM final concentration) and aliquots of 50 μl volume were taken at 0, 15, 30, 60, 120 min and 5 hrs, and immediately quenched with 200 μl of a solution of Verapamil 250 ng/ml (internal standard, I.S.) in ACN:MeOH 95:5. Samples were then centrifuged for 20 min at 3000 rpm at 10° C. and analyzed as reported below. […] The supernatant fractions were analyzed by LC/MS/MS. Zero-time incubations were used as 100% values.
# Stability was calculated as percentage remaining of the area ratio compound/I.S. at each time point vs. area ratio compound/I.S. at time 0 min.
# RAW.264 cells = assay: Intracellular uptake in RAW.264 cells (LC-MS); format: cell-based; conditions: 10 microM
# Experimental: 5×10^6 RAW.264 cells were adhered overnight in 10 cm tissue culture dishes. […] […] Supernatant (2 ml) and cells (pellets) were collected by trypsinization and frozen at […] for subsequent analysis by LC-MS.
# human PBMCs = assay: IL-6 secretion in human PBMCs, two batches of Compound A and SC12; format: cell-based; conditions: 24 h, 4 doses
# Experimental: PBMCs were purified from two donors and plated into 96 well plates at 2×10^5 cells/well in RPMI media including human 2% heat inactivated AB serum, glutamine, Pen-strep and R-mercapto-ethanol. The cells were treated with TLR7 agonists for 24 h in 4 doses. The conditioned media was removed for ELISA analyses for IL-6, and the EC50 value determined for each compound and each batch.
# All compounds were tested in four concentrations (10-1-0.1-0.01 micromolar).
# Concentrations of IL-6 were determined by ELISA from R&D Systems using the Microsoft Excel software. The results were analyzed in Graph Pad Prism in order to prepare dose-response curves, and for determination of EC50 values.
# [5] = Plasma stability, first experiment, minipig plasma; format: in vitro ADME
# Experimental: as §1
# [6] = Plasma stability and metabolic profiling, first experiment, rabbit plasma; format: in vitro ADME
# Experimental: (§2) A 10 μl of MeOH was added to improve solubility. […] The supernatant fractions were analyzed by LC/MS/MS. […] Percent loss of substrate in incubations was determined to estimate the in vitro half life of the test compound. […] Assignment of the structures was done by comparison of the MS/MS analysis of the spectra with the parent spectrum.
# [7] = test system: recombinant protein antigens from Plasmodium falciparum and Mycobacterium ulcerans; assay: Pilot immunization study with adjuvanted protein antigens; format: in vivo, mice; conditions: three s.c. immunizations, 10 nMol adjuvant
# Experimental: A pilot immunization study was conducted using Compound A and SC12 adjuvanted protein antigens. The immunization experiments were performed with two recombinant proteins expressed in E. coli. One antigen was derived from the malaria parasite Plasmodium falciparum and the other one from Mycobacterium ulcerans, which cause the ulcerative skin disease Buruli ulcer.
# [8] = Plasma stability and metabolic profiling, first experiment, human plasma; format: in vitro ADME
# Experimental: as §2
smiles,measurement,setting,value
"CCCCCCCC/C=C\CCCCCCCC(=O)OCC(COP(=O)(O)OCCNC(=O)c1ccc(Cn2c(=O)[nH]c3c(N)nc(OCCOC)nc32)cc1)OC(=O)CCCCCCC/C=C\CCCCCCCC (stereo not shown) [Compound A, 2-(4-((6-amino-2-(2-methoxyethoxy)-8-oxo-7H-purin-9(8H)-yl)methyl)benzamido)ethyl 2,3-bis(oleoyloxy)propyl phosphate]",EC50,"PBMCs; D1, first experiments on three donors",460 nM
same,EC50,"PBMCs; D2, first experiments on three donors",740 nM
same,EC50,"PBMCs; D3, first experiments on three donors",255 nM
same,Solubility in DMSO,[1],soluble
same,Solubility in acetonitrile,[1],not soluble
same,Solubility in water,[1],not soluble
same,Purity (HPLC),[2]; retest 12 Jun. 2009 (test 20 May 2009),Purity: 67.2%
same,Purity (HPLC),[2]; retest 16 Jun. 2009 (test 10 Jun. 2009),Purity: 44.8%
same,Purity (HPLC),[2]; retest 17 Jun. 2009 (test 20 May 2009),Purity: 58.9%
same,Purity (HPLC),[2]; retest 18 Jun. 2009 (test 11 Jun. 2009),Purity: 71.5%
same,Purity (HPLC),[2]; test date 10 Jun. 2009,Purity: 57.5%
same,Purity (HPLC),[2]; test date 11 Jun. 2009,Purity: 81.4%
same,Purity (HPLC),[2]; test date 20 May 2009,Purity: 89.6%
same,Plasma stability classification,[3],unstable
same,% Remaining,[3]; 0 min,100%
same,% Remaining,[3]; 15 min,73.8 ± 4.5%
same,% Remaining,[3]; 30 min,67.1 ± 8.8%
same,% Remaining,[3]; 60 min,25.2 ± 0.5%
same,% Remaining,[3]; 120 min,21.4 ± 1.9%
same,% Remaining,[3]; 300 min,15.3 ± 1.0%
same,% Remaining,[4]; 0 h,100%
same,% Remaining,[4]; 0.25 h,100.6 ± 14.5%
same,% Remaining,[4]; 0.5 h,90.3 ± 13.3%
same,% Remaining,[4]; 2 h,69.8 ± 16.8%
same,Intracellular Concentration,RAW.264 cells; incubation 1 hours,5.50 % of total
same,Intracellular Concentration,RAW.264 cells; incubation 6 hours,4.27 % of total
same,Intracellular Concentration,RAW.264 cells; incubation 16 hours,1.53 % of total
same,EC50,"human PBMCs; Donor 1, listed as Compound A new 20289",721 nM
same,EC50,"human PBMCs; Donor 1, listed as Compound A old Ch730/25/8",734 nM
same,EC50,"human PBMCs; Donor 2, listed as Compound A new 20289",521 nM
same,EC50,"human PBMCs; Donor 2, listed as Compound A old Ch730/25/8",392 nM
same,Plasma stability classification,[5],unstable
same,% Remaining,[5]; 0 min,100%
same,% Remaining,[5]; 15 min,102.4 ± 3.3%
same,% Remaining,[5]; 30 min,73.3 ± 5.0%
same,% Remaining,[5]; 60 min,78.6 ± 2.9%
same,% Remaining,[5]; 120 min,33.7 ± 2.3%
same,% Remaining,[5]; 300 min,10.8 ± 0.3%
same,Plasma stability classification,[6],unstable
same,% Remaining,[6]; 0 min,100%
same,Metabolites found,"[6]; 30 and 120 min, 50 μM",Three metabolites
same,% Remaining,[6]; 15 min,38.7 ± 3.4%
same,% Remaining,[6]; 30 min,10.2 ± 1.0%
same,% Remaining,[6]; 60 min,7.4 ± 0.1%
same,% Remaining,[6]; 120 min,4.4 ± 0.7%
same,% Remaining,[6]; 300 min,1.9 ± 0.1%
same,"Local side effects (swelling, ulcerations)",[7],No local side effects
same,Metabolites found,"[8]; 60 and 300 min, 50 μM",two of them
same,Plasma stability classification,[8]; first experiment,unstable
same,% Remaining,"[8]; first experiment, 0 min",100%
same,% Remaining,"[8]; first experiment, 15 min",99.7 (*) %
same,% Remaining,"[8]; first experiment, 30 min",40.4 ± 15.5%
same,% Remaining,"[8]; first experiment, 60 min",36.1 ± 7.6%
same,% Remaining,"[8]; first experiment, 120 min",17.4 ± 2.6%
same,% Remaining,"[8]; first experiment, 300 min",7.8 ± 3.3%
"COc1cc(N)c(Cl)cc1C(=O)OCCN1CCCCC1 [Compound M7319, 2-Piperidinoethyl 4-amino-5-chloro-2-methoxybenzoate, reference compound]",% Remaining,"[4]; 0 h, 4.16 μM",100%
same,% Remaining,"[4]; 1 h, 4.16 μM",23.3 ± 1.4%
same,% Remaining,"[4]; 5 h, 4.16 μM",0.01 ± 0.01%
